Results from the NIST ThermoML archive (doi:10.1016/j.jct.2007.04.005).

Assay: xn = mol fraction of the nth substance listed
Settings: 308.15 K, Liquid

CCCCCCCCC [nonane] + C1CCCCC1
Settings | mass density [kg/m3]
100 kPa, x2 = 0 | 705.8
100 kPa, x2 = 0.09303 | 708.8
100 kPa, x2 = 0.2009 | 712.6
100 kPa, x2 = 0.3051 | 716.8
100 kPa, x2 = 0.417 | 721.7
100 kPa, x2 = 0.512 | 726.3
100 kPa, x2 = 0.5996 | 731.2
100 kPa, x2 = 0.7052 | 737.9
100 kPa, x2 = 0.7993 | 745
100 kPa, x2 = 0.9039 | 754
101 kPa, x2 = 0 | 706.11
101 kPa, x2 = 0.1022 | 709.37
101 kPa, x2 = 0.1548 | 711.18
101 kPa, x2 = 0.2009 | 712.84
101 kPa, x2 = 0.2591 | 715.05
101 kPa, x2 = 0.3306 | 717.98
101 kPa, x2 = 0.4003 | 721.05
101 kPa, x2 = 0.4596 | 723.89
101 kPa, x2 = 0.5321 | 727.62
101 kPa, x2 = 0.612 | 732.19
101 kPa, x2 = 0.6649 | 735.49
101 kPa, x2 = 0.7224 | 739.39
101 kPa, x2 = 0.8047 | 745.58
101 kPa, x2 = 0.8686 | 751
101 kPa, x2 = 0.9405 | 757.89
2130 kPa, x2 = 0 | 707.5
2130 kPa, x2 = 0.09303 | 710.5
2130 kPa, x2 = 0.2009 | 714.3
2130 kPa, x2 = 0.3051 | 718.5
2130 kPa, x2 = 0.417 | 723.4
2130 kPa, x2 = 0.512 | 728
2130 kPa, x2 = 0.5996 | 733
2130 kPa, x2 = 0.7052 | 739.7
2130 kPa, x2 = 0.7993 | 746.8
2130 kPa, x2 = 0.9039 | 755.7
4150 kPa, x2 = 0 | 709.2
4150 kPa, x2 = 0.09303 | 712.2
4150 kPa, x2 = 0.2009 | 716
4150 kPa, x2 = 0.3051 | 720.2
4150 kPa, x2 = 0.417 | 725.1
4150 kPa, x2 = 0.512 | 729.7
4150 kPa, x2 = 0.5996 | 734.7
4150 kPa, x2 = 0.7052 | 741.5
4150 kPa, x2 = 0.7993 | 748.5
4150 kPa, x2 = 0.9039 | 757.5
6180 kPa, x2 = 0 | 710.9
6180 kPa, x2 = 0.09303 | 713.9
6180 kPa, x2 = 0.2009 | 717.7
6180 kPa, x2 = 0.3051 | 721.9
6180 kPa, x2 = 0.417 | 726.8
6180 kPa, x2 = 0.512 | 731.4
6180 kPa, x2 = 0.5996 | 736.4
6180 kPa, x2 = 0.7052 | 743.2
6180 kPa, x2 = 0.7993 | 750.3
6180 kPa, x2 = 0.9039 | 759.3
8210 kPa, x2 = 0 | 712.5
8210 kPa, x2 = 0.09303 | 715.5
8210 kPa, x2 = 0.2009 | 719.4
8210 kPa, x2 = 0.3051 | 723.6
8210 kPa, x2 = 0.417 | 728.5
8210 kPa, x2 = 0.512 | 733.1
8210 kPa, x2 = 0.5996 | 738.1
8210 kPa, x2 = 0.7052 | 744.9
8210 kPa, x2 = 0.7993 | 752
8210 kPa, x2 = 0.9039 | 761
10230 kPa, x2 = 0 | 714.1
10230 kPa, x2 = 0.09303 | 717.1
10230 kPa, x2 = 0.2009 | 721
10230 kPa, x2 = 0.3051 | 725.2
10230 kPa, x2 = 0.417 | 730.1
10230 kPa, x2 = 0.512 | 734.7
10230 kPa, x2 = 0.5996 | 739.8
10230 kPa, x2 = 0.7052 | 746.6
10230 kPa, x2 = 0.7993 | 753.6
10230 kPa, x2 = 0.9039 | 762.7
11250 kPa, x2 = 0 | 714.9
11250 kPa, x2 = 0.09303 | 717.9
11250 kPa, x2 = 0.2009 | 721.8
11250 kPa, x2 = 0.3051 | 726
11250 kPa, x2 = 0.417 | 730.9
11250 kPa, x2 = 0.512 | 735.5
11250 kPa, x2 = 0.5996 | 740.6
11250 kPa, x2 = 0.7052 | 747.4
11250 kPa, x2 = 0.7993 | 754.4
11250 kPa, x2 = 0.9039 | 763.5
12260 kPa, x2 = 0 | 715.7
12260 kPa, x2 = 0.09303 | 718.7
12260 kPa, x2 = 0.2009 | 722.6
12260 kPa, x2 = 0.3051 | 726.8
12260 kPa, x2 = 0.417 | 731.7
12260 kPa, x2 = 0.512 | 736.3
12260 kPa, x2 = 0.5996 | 741.4
12260 kPa, x2 = 0.7052 | 748.2
12260 kPa, x2 = 0.7993 | 755.3
12260 kPa, x2 = 0.9039 | 764.4
14290 kPa, x2 = 0 | 717.2
14290 kPa, x2 = 0.09303 | 720.3
14290 kPa, x2 = 0.2009 | 724.2
14290 kPa, x2 = 0.3051 | 728.3
14290 kPa, x2 = 0.417 | 733.3
14290 kPa, x2 = 0.512 | 737.9
14290 kPa, x2 = 0.5996 | 743
14290 kPa, x2 = 0.7052 | 749.8
14290 kPa, x2 = 0.7993 | 756.9
14290 kPa, x2 = 0.9039 | 766
16310 kPa, x2 = 0 | 718.7
16310 kPa, x2 = 0.09303 | 721.8
16310 kPa, x2 = 0.2009 | 725.7
16310 kPa, x2 = 0.3051 | 729.9
16310 kPa, x2 = 0.417 | 734.8
16310 kPa, x2 = 0.512 | 739.4
16310 kPa, x2 = 0.5996 | 744.5
16310 kPa, x2 = 0.7052 | 751.4
16310 kPa, x2 = 0.7993 | 758.4
16310 kPa, x2 = 0.9039 | 767.5
18340 kPa, x2 = 0 | 720.2
18340 kPa, x2 = 0.09303 | 723.2
18340 kPa, x2 = 0.2009 | 727.2
18340 kPa, x2 = 0.3051 | 731.4
18340 kPa, x2 = 0.417 | 736.3
18340 kPa, x2 = 0.512 | 740.9
18340 kPa, x2 = 0.5996 | 746.1
